Results taken from the supplement of paper PMC10307832.

Columns and labels:
Assay in all cases: relative viability (nuclei count vs DMSO), 5 days (fraction); higher = more cells survive
HCC-78 = test system: HCC-78
In short: (§1)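 Relative viability divides the nuclei count in treated wells by that in vehicle wells. Lung cancer cell lines were seeded in 1536-well plates, dosed by pin tool the next day, and fixed and stained after 5 days in one step with final 0.05% Triton X-100, 1% formaldehyde and 1 ug/ml Hoechst. Dosing was a single drug or a fixed anchor-drug dose plus five library-drug doses (not always all listed) in √10 steps, and values are medians of duplicate plates imaged at 4×.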

UMC-11 = test system: UMC-11
In short: as §1

NCI-H727 = test system: NCI-H727
In short: as §1

HCC-44 = test system: HCC-44
In short: as §1

LOU-NH91 = test system: LOU-NH91
In short: as §1

NCI-H838 = test system: NCI-H838
In short: as §1

NCI-H1666 = test system: NCI-H1666
In short: as §1

HCC-366 = test system: HCC-366
In short: as §1

ABC-1 = test system: ABC-1
In short: as §1

201T = test system: 201T
In short: as §1

NCI-H1755 = test system: NCI-H1755
In short: as §1

NCI-H2009 = test system: NCI-H2009
In short: as §1

NCI-H1734 = test system: NCI-H1734
In short: as §1

NCI-H358 = test system: NCI-H358
In short: as §1

SW 1573 = test system: SW 1573
In short: as §1

NCI-H1650 = test system: NCI-H1650
In short: as §1

NCI-H520 = test system: NCI-H520
In short: as §1

LK-2 = test system: LK-2
In short: as §1

BEN = test system: BEN
In short: as §1

NCI-H2405 = test system: NCI-H2405
In short: as §1

NCI-H2347 = test system: NCI-H2347
In short: as §1

NCI-H1355 = test system: NCI-H1355
In short: as §1

Cc1cnc(-c2cnc(NCCNc3ccc(C#N)cn3)nc2-c2ccc(Cl)cc2Cl)[nH]1 + Nc1ncn([C@H]2C[C@H](O)[C@@H](CO)O2)c(=O)n1 [Decitabine] (partner 2 µM) was tested, and the relative viability (HCC-78; first compound 0.08 µM) was 0.692, the relative viability (HCC-78; first compound 0.253 µM) was 0.507 and the relative viability (HCC-78; first compound 0.8 µM) was 0.767. The relative viability (HCC-78; first compound 2.53 µM) was 0.731, the relative viability (UMC-11; first compound 0.08 µM) was 0.727 and the relative viability (UMC-11; first compound 0.253 µM) was 0.533. It also gave a relative viability (UMC-11; first compound 0.8 µM) of 0.314, a relative viability (UMC-11; first compound 2.53 µM) of 0.668 and a relative viability (NCI-H727; first compound 0.08 µM) of 0.867. It also gave a relative viability (NCI-H727; first compound 0.253 µM) of 0.937, a relative viability (NCI-H727; first compound 0.8 µM) of 0.838 and a relative viability (NCI-H727; first compound 2.53 µM) of 0.766. It also gave a relative viability (HCC-44; first compound 0.08 µM) of 0.846, a relative viability (HCC-44; first compound 0.253 µM) of 0.561 and a relative viability (HCC-44; first compound 0.8 µM) of 0.925. The relative viability (HCC-44; first compound 2.53 µM) was 1.02, the relative viability (LOU-NH91; first compound 0.08 µM) was 0.818 and the relative viability (LOU-NH91; first compound 0.253 µM) was 0.799. The relative viability (LOU-NH91; first compound 0.8 µM) was 0.852, the relative viability (LOU-NH91; first compound 2.53 µM) was 0.802 and the relative viability (NCI-H838; first compound 0.08 µM) was 0.503. For the same molecule, the relative viability (NCI-H838; first compound 0.253 µM) was 0.506, the relative viability (NCI-H838; first compound 0.8 µM) was 0.47 and the relative viability (NCI-H838; first compound 2.53 µM) was 0.46. It also gave a relative viability (NCI-H1666; first compound 0.08 µM) of 0.759, a relative viability (NCI-H1666; first compound 0.253 µM) of 0.713 and a relative viability (NCI-H1666; first compound 0.8 µM) of 0.618. It also gave a relative viability (NCI-H1666; first compound 2.53 µM) of 0.844, a relative viability (HCC-366; first compound 0.08 µM) of 0.372 and a relative viability (HCC-366; first compound 0.253 µM) of 0.318. It also gave a relative viability (HCC-366; first compound 0.8 µM) of 0.288, a relative viability (HCC-366; first compound 2.53 µM) of 0.335 and a relative viability (ABC-1; first compound 0.08 µM) of 1.27. It also gave a relative viability (ABC-1; first compound 0.253 µM) of 0.871, a relative viability (ABC-1; first compound 0.8 µM) of 1.08 and a relative viability (ABC-1; first compound 2.53 µM) of 0.918. For the same molecule, the relative viability (201T; first compound 0.08 µM) was 0.817, the relative viability (201T; first compound 0.8 µM) was 0.828 and the relative viability (201T; first compound 2.53 µM) was 0.849. It also gave a relative viability (NCI-H1755; first compound 0.08 µM) of 0.723, a relative viability (NCI-H1755; first compound 0.253 µM) of 0.726 and a relative viability (NCI-H1755; first compound 0.8 µM) of 0.771. It also gave a relative viability (NCI-H1755; first compound 2.53 µM) of 0.704, a relative viability (NCI-H2009; first compound 0.08 µM) of 0.426 and a relative viability (NCI-H2009; first compound 0.253 µM) of 0.37. It also gave a relative viability (NCI-H2009; first compound 0.8 µM) of 0.404, a relative viability (NCI-H2009; first compound 2.53 µM) of 0.395 and a relative viability (NCI-H1734; first compound 0.08 µM) of 0.514. It also gave a relative viability (NCI-H1734; first compound 0.253 µM) of 0.453, a relative viability (NCI-H1734; first compound 0.8 µM) of 0.544 and a relative viability (NCI-H1734; first compound 2.53 µM) of 0.567. For the same molecule, the relative viability (NCI-H358; first compound 0.08 µM) was 0.234, the relative viability (NCI-H358; first compound 0.253 µM) was 0.208 and the relative viability (NCI-H358; first compound 0.8 µM) was 0.248. The relative viability (NCI-H358; first compound 2.53 µM) was 0.213, the relative viability (SW 1573; first compound 0.08 µM) was 0.583 and the relative viability (SW 1573; first compound 0.253 µM) was 0.457. The relative viability (SW 1573; first compound 0.8 µM) was 0.474, the relative viability (SW 1573; first compound 2.53 µM) was 0.354 and the relative viability (NCI-H1650; first compound 0.08 µM) was 0.478. For the same molecule, the relative viability (NCI-H1650; first compound 0.253 µM) was 0.259, the relative viability (NCI-H1650; first compound 0.8 µM) was 0.397 and the relative viability (NCI-H1650; first compound 2.53 µM) was 0.443. It also gave a relative viability (NCI-H520; first compound 0.08 µM) of 0.531, a relative viability (NCI-H520; first compound 0.253 µM) of 0.504 and a relative viability (NCI-H520; first compound 0.8 µM) of 0.563. The relative viability (NCI-H520; first compound 2.53 µM) was 0.546, the relative viability (LK-2; first compound 0.08 µM) was 0.27 and the relative viability (LK-2; first compound 0.253 µM) was 0.275. It also gave a relative viability (LK-2; first compound 0.8 µM) of 0.323, a relative viability (LK-2; first compound 2.53 µM) of 0.395 and a relative viability (BEN; first compound 0.08 µM) of 0.768. The relative viability (BEN; first compound 0.253 µM) was 0.716, the relative viability (BEN; first compound 0.8 µM) was 0.663 and the relative viability (BEN; first compound 2.53 µM) was 0.8. The relative viability (NCI-H2405; first compound 0.08 µM) was 0.799, the relative viability (NCI-H2405; first compound 0.253 µM) was 0.734 and the relative viability (NCI-H2405; first compound 0.8 µM) was 0.758. It also gave a relative viability (NCI-H2405; first compound 2.53 µM) of 0.645, a relative viability (NCI-H2347; first compound 0.08 µM) of 0.708 and a relative viability (NCI-H2347; first compound 0.253 µM) of 0.55. The relative viability (NCI-H2347; first compound 0.8 µM) was 0.65, the relative viability (NCI-H2347; first compound 2.53 µM) was 0.65 and the relative viability (NCI-H1355; first compound 0.08 µM) was 0.354. It also gave a relative viability (NCI-H1355; first compound 0.253 µM) of 0.316, a relative viability (NCI-H1355; first compound 0.8 µM) of 0.36 and a relative viability (NCI-H1355; first compound 2.53 µM) of 0.371.
